In patent US20210186997A1, “METHODS AND COMPOSITIONS FOR INCREASING NAD LEVEL IN MAMMALS WITH D-RIBOSE AND VITAMIN B3” (Bioenergy Life Science, Inc., priority 2018, published 2021):
“Also recorded” adds a separate entry of the source.

Columns and labels:
NR levels = assay: Experiment 1: NR levels in blood by LC/MS after bolus administration; format: in vivo, Sprague-Dawley rats; conditions: male rats, bolus 100 mg/kg, 0.25-24 hours after feeding, compared to baseline, FIG. 2
Description: Four groups of four male Sprague-Dawley rats were each bolus administered the different compounds identified in the table below at a dosage of 100 mg per kg of body weight: [table] The blood drawn from each of the groups at the increments referenced above were also measured by LC/MS for NR levels. The measured NR levels are charted in FIG. 2, with each data point being the average of three animals of the same sex.

NAD levels = assay: Experiment 1: NAD levels in blood by LC/MS after bolus administration; format: in vivo, Sprague-Dawley rats; conditions: for NAD levels in blood: male rats, bolus 100 mg per kg of body weight, 0.25-24 hours after feeding, compared to baseline, FIG. 1
Description: Four groups of four male Sprague-Dawley rats were each bolus administered the different compounds identified in the table below at a dosage of 100 mg per kg of body weight:
A blood sample of 0.1 ml was drawn from each rat of each group at increments of 0.25, 0.5, 1, 2, 4, 8 and 24 hours after feeding. Each of the blood samples were then measured by Liquid Chromatography/Mass Spectrometry (LC/MS) for NAD levels. The measured NAD levels are charted in FIG. 1, with each data point being the average of the four rats of each group.

NAD+ = assay: Experiment 3: NAD+ in blood by LC/MS/MS, oral dosing twice daily for five days; format: in vivo, Sprague-Dawley male rats; conditions: Nicotinamide control (coated nicotinamide 108 mg/kg PO BID), relative to RiaGev dose-response line, FIG. 11
Description: Eighteen Sprague-Dawley male rats were selected as test animals in the study, with three rats for each of six treatment groups. Sprague-Dawley male rats were selected because they have been widely used in similar experiments with reliable results. The use of three rats per group offers the minimum number required to calculate useful means and standard deviations for graphical representation of the data. For five consecutive days, the rats were dosed at approximately 7:30-8:30 a.m. and at approximately 4:30-5:45 p.m. Blood was collected approximately 0.5 to 1.5 hours following each p.m. dosing and immediately processed and assayed for NAD+, NMN, and NR by LC/MS/MS. The timing of the supplementation doses was chosen to mimic behavior in humans and other non-nocturnal mammals (i.e., diurnal mammals) of eating breakfast in the morning and dinner in the early evening by administering the doses to the animals at around those times. […] Thus the evening sampling time for the rats would correspond to the morning for humans and other diurnal mammals. The animals were humanely euthanized after the final blood draw and representative samples of the liver, biceps muscle, peripheral adipose tissue, and whole brain were collected, snap frozen, extracted, and assayed for NAD+, NMN, and NR by LC/MS/MS. […]

O=C(O)c1cccnc1 [Niacin, Nicotinic Acid (Niacin)]
NR levels in blood (NR levels): enhance NR levels | NAD levels in blood (NAD levels): elevated NAD levels

NC(=O)c1cccnc1 [Nicotinamide]
blood NAD concentration change over its base (water control) level (NAD+): outside of the line

NC(=O)c1ccc[n+]([C@@H]2O[C@H](CO)[C@@H](O)[C@H]2O)c1 [Nicotinamide Riboside (NR), Nicotinamide Riboside]
time to peak blood NAD level (NAD levels; after consumption): about 8 hours | NAD levels in blood (NAD levels): highest peak value

O=C[C@H](O)[C@H](O)[C@H](O)CO [D-ribose]
NR levels in blood (NR levels): enhance NR levels | NAD levels in blood (NAD levels): elevated NAD levels; also recorded: increases NAD levels
